In patent publication US10940139B2, “Compounds that interact with the Ras superfamily for the treatment of cancers, inflammatory diseases, rasopathies, and fibrotic disease” (Shy Therapeutics LLC, priority 2017, dated 2021):

Each compound was assayed on MIA-PACA2 pancreatic cancer cell lines (assay: Cell proliferation assay (CellTiter 96 AQueous One)). Conditions: Homo sapiens, MIA PaCa-2; MIA-PACA2, same assay as the % inhibition (standard conditions).
Format: cell-based

`CN(C)Cc1ccc(-c2csc3c(O)nc(-c4ccccn4)nc23)cc1F` [drawing 1721] and `CC(C)(C)c1ccc(-c2csc3c(O)nc(-c4ccccn4)nc23)cc1` [drawing 1723] fall in the same range of IC50: 100 to 500 nM for the first, 100 to 500 nM for the second.

`Oc1nc(-c2ccccn2)nc2c(-c3cc(Cl)cc(Cl)c3)csc12` [drawing 1724] and `Oc1nc(-c2ccccn2)nc2c(-c3cccc4c3OCO4)csc12` [drawing 1725] fall in the same range of IC50: 100 to 500 nM for the first, 100 to 500 nM for the second.

Same assay, conditions: Homo sapiens, MIA PaCa-2; at 30 μM, MIA-PACA2

`O=C(c1csc2c(O)nc(-c3ccccn3)nc12)N1CCN(Cc2ccc(O)c(Cl)c2)CC1` [drawing 1658] and `O=C(c1csc2c(O)nc(-c3ccccn3)nc12)N1CCN(c2ccc(O)c(Cl)c2)CC1` [drawing 1696] fall in the same range of inhibition at 30 µM: 76 to 100% for the first, 76 to 100% for the second.

`O=C(c1csc2c(O)nc(-c3ccccn3)nc12)N1CCOC(c2ccccc2)C1` (stereo not drawn) [drawing 1659] and `O=C(c1csc2c(O)nc(-c3ccccn3)nc12)N1CCOC(c2ccccc2Cl)C1` (stereo not drawn) [drawing 1662] fall in the same range of inhibition at 30 µM: 76 to 100% for the first, 76 to 100% for the second.

`COc1ccccc1C1CN(C(=O)c2csc3c(O)nc(-c4ccccn4)nc23)CCO1` (stereo not drawn) [drawing 1660] and `COc1ccccc1C1CN(C(=O)c2csc3c(O)nc(-c4ccccn4)nc23)CCN1` (stereo not drawn) [drawing 1665] fall in the same range of inhibition at 30 µM: 76 to 100% for the first, 76 to 100% for the second.

First: COc1ccc(C2CN(C(=O)c3csc4c(O)nc(-c5ccccn5)nc34)CCO2)cc1 (stereo not drawn) [drawing 1661]
Second: COc1ccc(C2CN(C(=O)c3csc4c(O)nc(-c5ccccn5)nc34)CCN2)cc1 (stereo not drawn) [drawing 1667]
The inhibition at 30 µM of the first is higher: 76 to 100% for the first, 25 to 50% for the second.

`O=C(c1csc2c(O)nc(-c3ccccn3)nc12)N1CCOC(c2cccc(Cl)c2)C1` (stereo not drawn) [drawing 1663] and `O=C(c1csc2c(O)nc(-c3ccccn3)nc12)N1CCC(c2cccc(O)c2)C1` (stereo not drawn) [drawing 1716] fall in the same range of inhibition at 30 µM: 76 to 100% for the first, 76 to 100% for the second.

`O=C(c1csc2c(O)nc(-c3ccccn3)nc12)N1CCOC(Cc2ccccc2)C1` (stereo not drawn) [drawing 1664] and `O=C(c1csc2c(O)nc(-c3ccccn3)nc12)N1CCNC(Cc2ccccc2)C1` (stereo not drawn) [drawing 1671] fall in the same range of inhibition at 30 µM: 76 to 100% for the first, 76 to 100% for the second.

First: COc1cccc(C2CN(C(=O)c3csc4c(O)nc(-c5ccccn5)nc34)CCN2)c1 (stereo not drawn) [drawing 1666]
Second: COc1cccc(CC2CN(C(=O)c3csc4c(O)nc(-c5ccccn5)nc34)CCN2)c1 (stereo not drawn) [drawing 1706]
The inhibition at 30 µM of the first is higher: 76 to 100% for the first, 1 to 25% for the second.

`Cc1ccccc1C1CN(C(=O)c2csc3c(O)nc(-c4ccccn4)nc23)CCN1` (stereo not drawn) [drawing 1668] and `O=C(c1csc2c(O)nc(-c3ccccn3)nc12)N1CCNC(c2ccccc2F)C1` (stereo not drawn) [drawing 1669] fall in the same range of inhibition at 30 µM: 76 to 100% for the first, 76 to 100% for the second.

`Cn1cc(C2CN(C(=O)c3csc4c(O)nc(-c5ccccn5)nc34)CCN2)cn1` (stereo not drawn) [drawing 1670] and `O=C(c1csc2c(O)nc(-c3ccccn3)nc12)N1CCNC(c2cn[nH]c2)C1` (stereo not drawn) [drawing 1734] fall in the same range of inhibition at 30 µM: 1 to 25% for the first, 1 to 25% for the second.

First: O=C(NCCc1ccncc1)c1csc2nc(-c3ccccn3)nc(N3CCOCC3)c12 [drawing 1672]
Second: O=C(NCCc1ccnc(O)c1)c1csc2nc(-c3ccccn3)nc(N3CCOCC3)c12 [drawing 1676]
The inhibition at 30 µM of the first is higher: 76 to 100% for the first, 51 to 75% for the second.

`COc1ccncc1CCNC(=O)c1csc2nc(-c3ccccn3)nc(N3CCOCC3)c12` [drawing 1673] and `O=C(NCCc1cncnc1)c1csc2nc(-c3ccccn3)nc(N3CCOCC3)c12` [drawing 1677] fall in the same range of inhibition at 30 µM: 76 to 100% for the first, 76 to 100% for the second.

`COc1cc(CCN(C)C(=O)c2csc3nc(-c4ccccn4)nc(N4CCOCC4)c23)ccn1` [drawing 1674] and `CN(CCc1cccc(C#N)c1)C(=O)c1csc2nc(-c3ccccn3)nc(N3CCOCC3)c12` [drawing 1681] fall in the same range of inhibition at 30 µM: 76 to 100% for the first, 76 to 100% for the second.

`COc1ccnc(-c2nc(O)c3c(C#N)csc3n2)c1` [drawing 1675] and `COc1ccnc(-c2nc(O)c3c(Cl)csc3n2)c1` [drawing 1693] fall in the same range of inhibition at 30 µM: 76 to 100% for the first, 76 to 100% for the second.

`O=C(NCCc1ccc(O)c(O)c1)c1csc2nc(-c3ccccn3)nc(N3CCOCC3)c12` [drawing 1678] and `N#Cc1cccc(CCNC(=O)c2csc3nc(-c4ccccn4)nc(N4CCOCC4)c23)c1` [drawing 1680] fall in the same range of inhibition at 30 µM: 76 to 100% for the first, 76 to 100% for the second.

First: O=C(NCCc1nnn[nH]1)c1csc2nc(-c3ccccn3)nc(N3CCOCC3)c12 [drawing 1679]
Second: COCCCCNC(=O)c1csc2nc(-c3ccccn3)nc(N3CCOCC3)c12 [drawing 1682]
The inhibition at 30 µM of the first is lower: 51 to 75% for the first, 76 to 100% for the second.

`COCCCCN(C)C(=O)c1csc2nc(-c3ccccn3)nc(N3CCOCC3)c12` [drawing 1683] and `CNS(=O)(=O)CCCNC(=O)c1csc2nc(-c3ccccn3)nc(N3CCOCC3)c12` [drawing 1684] fall in the same range of inhibition at 30 µM: 76 to 100% for the first, 76 to 100% for the second.

`COCCN(CCOC)c1nc(-c2ccccn2)nc2scc(C(=O)NCCc3ccc(OC)nc3)c12` [drawing 1685] and `COCCCCNC(=O)c1csc2nc(-c3ccccn3)nc(N(CCOC)CCOC)c12` [drawing 1686] fall in the same range of inhibition at 30 µM: 76 to 100% for the first, 76 to 100% for the second.

`CC(C(=O)Nc1ccnc(-c2ccccn2)n1)c1ccc(C#N)cc1` (stereo not drawn) [drawing 1687] and `Cc1cnc(-c2ccccn2)nc1NC(=O)C(C)c1ccc(C#N)cc1` (stereo not drawn) [drawing 1690] fall in the same range of inhibition at 30 µM: 76 to 100% for the first, 76 to 100% for the second.

`COc1ccc2c(c1)CCC2C(=O)Nc1ccnc(-c2ccccn2)n1` (stereo not drawn) [drawing 1688] and `N#Cc1ccc2c(c1)CCCC2C(=O)Nc1ccnc(-c2ccccn2)n1` (stereo not drawn) [drawing 1731] fall in the same range of inhibition at 30 µM: 76 to 100% for the first, 76 to 100% for the second.

`N#Cc1ccc(COCC(=O)Nc2ccnc(-c3ccccn3)n2)cc1` [drawing 1689] and `N#Cc1ccc(COCC(=O)Nc2nc(-c3ccccn3)nc3sccc23)cc1` [drawing 1692] fall in the same range of inhibition at 30 µM: 76 to 100% for the first, 76 to 100% for the second.

`CC(C(=O)Nc1nc(-c2ccccn2)nc2sccc12)c1ccc(C#N)cc1` (stereo not drawn) [drawing 1691] and `O=C(COCc1ccncc1)Nc1nc(-c2ccccn2)nc2sccc12` [drawing 1704] fall in the same range of inhibition at 30 µM: 76 to 100% for the first, 76 to 100% for the second.

`COc1ccc(N2CCN(C(=O)c3csc4c(O)nc(-c5ccccn5)nc34)CC2)cc1O` [drawing 1695] and `CC(c1ccccc1)N1CCN(C(=O)c2csc3c(O)nc(-c4ccccn4)nc23)CC1` (stereo not drawn) [drawing 1697] fall in the same range of inhibition at 30 µM: 76 to 100% for the first, 76 to 100% for the second.

Compared with `O=C(c1csc2c(O)nc(-c3ccccn3)nc12)N1CCOC(CN2CCOCC2)C1` (stereo not drawn) [drawing 1698], `O=C(c1csc2c(O)nc(-c3ccccn3)nc12)N1CCC(c2ccncc2)C1` (stereo not drawn) [drawing 1715] is higher in inhibition at 30 µM: 51 to 75% for the first, 76 to 100% for the second.

`O=C(c1csc2c(O)nc(-c3ccccn3)nc12)N1CCNC(c2ccccc2Cl)C1` (stereo not drawn) [drawing 1699] and `O=C(c1csc2c(O)nc(-c3ccccn3)nc12)N1CCNC(c2ccc(F)cc2)C1` (stereo not drawn) [drawing 1700] fall in the same range of inhibition at 30 µM: 76 to 100% for the first, 76 to 100% for the second.

Compared with `O=C(c1csc2c(O)nc(-c3ccccn3)nc12)N1CCNC(c2ccc(O)cc2)C1` (stereo not drawn) [drawing 1701], `O=C(c1csc2c(O)nc(-c3ccccn3)nc12)N1CCNC(Cc2ccc(F)cc2)C1` (stereo not drawn) [drawing 1707] is lower in inhibition at 30 µM: 76 to 100% for the first, 51 to 75% for the second.

First: COCCCCNC(=O)c1csc2nc(-c3ccccn3)nc(N3CCS(=O)(=O)CC3)c12 [drawing 1702]
Second: COc1ccc(CCNC(=O)c2csc3nc(-c4ccccn4)nc(N4CCS(=O)(=O)CC4)c23)cn1 [drawing 1729]
The inhibition at 30 µM of the first is lower: 1 to 25% for the first, 51 to 75% for the second.

`Cc1cnc(-c2ccccn2)nc1NC(=O)C1CCCc2cc(C#N)ccc21` (stereo not drawn) [drawing 1703] and `Cc1cnc(-c2ccccn2)nc1NC(=O)Cc1ccc2cnccc2c1` [drawing 1732] fall in the same range of inhibition at 30 µM: 76 to 100% for the first, 76 to 100% for the second.

Compared with `O=C(COCc1cccnc1)Nc1nc(-c2ccccn2)nc2sccc12` [drawing 1705], `O=C(COCc1ccnc(O)c1)Nc1nc(-c2ccccn2)nc2sccc12` [drawing 1733] is lower in inhibition at 30 µM: 76 to 100% for the first, 51 to 75% for the second.

First: O=C(c1csc2c(O)nc(-c3ccccn3)nc12)N1CCNC(Cc2cccc(F)c2)C1 (stereo not drawn) [drawing 1708]
Second: O=C(c1csc2c(O)nc(-c3ccccn3)nc12)N1CC2CC1CN2c1ccccc1 (stereo not drawn) [drawing 1714]
The inhibition at 30 µM of the first is lower: 25 to 50% for the first, 76 to 100% for the second.

`COc1ccnc(-c2nc(O)c3c(C(F)(F)F)csc3n2)c1` [drawing 1709] and `Oc1nc(-c2ccccn2)nc2sc3c(c12)CCNC3` [drawing 1727] fall in the same range of inhibition at 30 µM: 76 to 100% for the first, 76 to 100% for the second.

First: Nc1nc(-c2ccccn2)nc2ccsc12 [drawing 1710]
Second: Cc1cc2nc(-c3ccccn3)nc(N)c2s1 [drawing 1712]
The inhibition at 30 µM of the first is lower: 1 to 25% for the first, 76 to 100% for the second.

`Nc1nc(-c2ccccn2)nc2c(-c3ccccc3Cl)csc12` [drawing 1711] and `Nc1nc(-c2ccccn2)nc2c(-c3ccccc3)csc12` [drawing 1735] fall in the same range of inhibition at 30 µM: 76 to 100% for the first, 76 to 100% for the second.

`Cc1sc2c(N)nc(-c3ccccn3)nc2c1-c1ccccc1` [drawing 1713] and `CC(C)(C)c1ccc(-c2csc3c(O)nc(-c4ccccn4)nc23)cc1` [drawing 1723] fall in the same range of inhibition at 30 µM: 76 to 100% for the first, 76 to 100% for the second.

`O=C(c1cc2nc(-c3ccccn3)nc(O)c2s1)N1CCN(c2ccccc2)CC1` [drawing 1717] and `O=C(c1cc2nc(-c3ccccn3)nc(O)c2s1)N1CCOC(c2ccccc2)C1` (stereo not drawn) [drawing 1718] fall in the same range of inhibition at 30 µM: 76 to 100% for the first, 76 to 100% for the second.

First: O=C(NCCc1cccnc1)c1cc2nc(-c3ccccn3)nc(O)c2s1 [drawing 1719]
Second: O=C(O)c1cc2nc(-c3ccccn3)nc(O)c2s1 [drawing 1726]
The inhibition at 30 µM of the first is higher: 76 to 100% for the first, 51 to 75% for the second.

`Cc1ccc(OC2CCCC2)c(-c2csc3c(O)nc(-c4ccccn4)nc23)c1` [drawing 1720] and `Oc1nc(-c2ccccn2)nc2c(-c3ccc(OC4CCCC4)cc3)csc12` [drawing 1739] fall in the same range of inhibition at 30 µM: 76 to 100% for the first, 76 to 100% for the second.

`CN(C)Cc1ccc(-c2csc3c(O)nc(-c4ccccn4)nc23)cc1F` [drawing 1721] and `Cn1nnc2ccc(-c3csc4c(O)nc(-c5ccccn5)nc34)cc21` [drawing 1737] fall in the same range of inhibition at 30 µM: 76 to 100% for the first, 76 to 100% for the second.

`Oc1nc(-c2ccccn2)nc2c(-c3cc(Cl)cc(Cl)c3)csc12` [drawing 1724] and `Oc1nc(-c2ccccn2)nc2c(-c3cc(F)ccc3OC(F)F)csc12` [drawing 1736] fall in the same range of inhibition at 30 µM: 76 to 100% for the first, 76 to 100% for the second.

`Oc1nc(-c2ccccn2)nc2c(-c3cccc4c3OCO4)csc12` [drawing 1725] and `Oc1nc(-c2ccccn2)nc2c(-c3ccc(OC4CCOC4)cc3)csc12` (stereo not drawn) [drawing 1738] fall in the same range of inhibition at 30 µM: 76 to 100% for the first, 76 to 100% for the second.

Compared with `Oc1nc(-c2ccccn2)nc2sc3c(c12)CCCNC3` [drawing 1728], `O=C(NCCc1cnc(O)nc1)c1csc2nc(-c3ccccn3)nc(N3CCS(=O)(=O)CC3)c12` [drawing 1730] is lower in inhibition at 30 µM: 25 to 50% for the first, 1 to 25% for the second.
